# Measurements taken from US6479435B1, “Diaryl ethers and processes for their preparation and herbicidal and desiccant compositions containing them” (ISK Americas Incorporated, priority 1997, dated 2002).
# Columns and labels:
# Type in all cases: in vivo
# [1] = system: soybean (Glycine max L., var. Pella 86, SOY); assay: Post-emerge greenhouse test, crop damage rating; design: key to crop damage rating SOY: 0-100 scale: 0 = no damage, 100 = complete death of all plants; details: 14 days after application, scale 0-100
# Summary of the method: (§1)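 Scores use a 0 (no damage) to 100 (complete kill) scale, taken 14 days after a foliar spray. Acetone solutions with 0.25% v/v non-ionic surfactant were applied by track sprayer at 187 l/ha and 63-1000 g ai/ha to bottom-watered 2-3 leaf plants.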
# [2] = system: ivyleaf morningglory (Ipomoea hederacea, IPOHE); assay: Pre-emerge greenhouse herbicide test, phytotoxicity rating; details: 14 days after application, rating scale 0-100
# Summary of the method: (§2)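 Visual 0–100 injury rating (100 = all plants dead) taken 14 days after treatment. Rates of 125–1000 g ai/ha in acetone, 187 l/ha, were sprayed onto soil one day post-sowing; pots were surface-watered to incorporate, then bottom-watered.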
# [3] = system: sicklepod (Cassia obtusifolia, CASOB); assay: as above; details: 14 days after application, rating scale 0-100
# Summary of the method: as §2
# [4] = system: barnyardgrass (Echinochloa crusgalli, ECHCG); assay: as above; details: 14 days after application, rating scale 0-100
# Summary of the method: as §2
# [5] = system: lambsquarters (Chenopodium album, CHEAL); assay: as above; details: 14 days after application, rating scale 0-100
# Summary of the method: as §2
# [6] = system: common ragweed (Ambrosia artemisiifolia L., AMBEL); assay: as above; details: 14 days after application, rating scale 0-100
# Summary of the method: as §2
# [7] = system: Johnsongrass (Sorghum halepense, SORHA); assay: as above; details: 14 days after application, rating scale 0-100
# Summary of the method: as §2
# [8] = system: redroot pigweed (Amaranthus retroflexus, AMARE); assay: as above; details: 14 days after application, rating scale 0-100
# Summary of the method: as §2
# [9] = system: green foxtail (Setaria viridis, SETVI); assay: as above; details: 14 days after application, rating scale 0-100
# Summary of the method: as §2
# [10] = system: velvetleaf (Abutilon theophrasti, ABUTH); assay: as above; details: 14 days after application, rating scale 0-100
# Summary of the method: as §2
# [11] = system: large crabgrass (Digitaria sanguinalis, DIGSA); assay: as above; details: 14 days after application, rating scale 0-100
# Summary of the method: as §2
# [12] = system: field corn (Zea mays L., var. Dekalb 535, CORN); assay: Post-emerge greenhouse test, crop damage rating; details: 14 days after application, scale 0-100
# Summary of the method: as §1
# [13] = system: upland rice (Oryza sp., var.Tebonnet, RICE); assay: Post-emerge greenhouse test, crop damage rating; details: 14 days after application, scale 0-100
# Summary of the method: as §1
# [14] = system: field corn (Zea mays L., var. Dekalb 535, CORN); assay: Pre-emerge greenhouse test, crop damage rating; details: 14 days after application, rating scale 0-100
# Summary of the method: as §2
# [15] = system: upland rice (Oryza sp., var.Tebonnet, RICE); assay: Pre-emerge greenhouse test, crop damage rating; details: 14 days after application, rating scale 0-100
# Summary of the method: as §2
# [16] = system: ivyleaf morningglory (Ipomoea hederacea, IPOHE); assay: Post-emerge greenhouse herbicide test, phytotoxicity rating; details: 14 days after application, scale 0-100
# Summary of the method: as §1
# [17] = system: sicklepod (Cassia obtusifolia, CASOB); assay: as above; details: 14 days after application, scale 0-100
# Summary of the method: as §1
# [18] = system: barnyardgrass (Echinochloa crusgalli, ECHCG); assay: as above; details: 14 days after application, scale 0-100
# Summary of the method: as §1
# [19] = system: lambsquarters (Chenopodium album, CHEAL); assay: as above; details: 14 days after application, scale 0-100
# Summary of the method: as §1
# [20] = system: Johnsongrass (Sorghum halepense, SORHA); assay: as above; details: 14 days after application, scale 0-100
# Summary of the method: as §1
# [21] = system: redroot pigweed (Amaranthus retroflexus, AMARE); assay: as above; details: 14 days after application, scale 0-100
# Summary of the method: as §1
# [22] = system: green foxtail (Setaria viridis, SETVI); assay: as above; details: 14 days after application, scale 0-100
# Summary of the method: as §1
# [23] = system: velvetleaf (Abutilon theophrasti, ABUTH); assay: as above; details: 14 days after application, scale 0-100
# Summary of the method: as §1
# [24] = system: large crabgrass (Digitaria sanguinalis, DIGSA); assay: as above; details: 14 days after application, scale 0-100
# Summary of the method: as §1
# [25] = system: soybean (Glycine max L., var. Pella 86, SOY); assay: Pre-emerge greenhouse test, crop damage rating; design: key to SOY crop damage rating: 0 = no damage, 100 = complete death of all plants; details: 14 days after application, rating scale 0-100
# Summary of the method: as §2
# [26] = system: common ragweed (Ambrosia artemisiifolia L., AMBEL); assay: Post-emerge greenhouse herbicide test, phytotoxicity rating; details: 14 days after application, scale 0-100
# Summary of the method: as §1
compound,measurement,setting,value
COc1cc(OC)nc(Oc2cc(-n3c(=O)n4n(c3=S)CCCC4)c(F)cc2Cl)n1 [Compound 8-33],crop damage rating SOY,[1]; rate 63 g ai/ha,55
same,crop damage rating SOY,[1]; rate 500 g ai/ha,70
same,IPOHE phytotoxicity rating,[2]; Rate 125 g al/ha,0
same,IPOHE phytotoxicity rating,[2]; Rate 500 g al/ha,70
same,CASOB phytotoxicity rating,[3]; Rate 125 g al/ha,40
same,CASOB phytotoxicity rating,[3]; Rate 500 g al/ha,90
same,ECHCG phytotoxicity rating,[4]; Rate 125 g al/ha,0
same,ECHCG phytotoxicity rating,[4]; Rate 500 g al/ha,20
same,CHEAL phytotoxicity rating,[5]; Rate 125 g al/ha,100
same,CHEAL phytotoxicity rating,[5]; Rate 500 g al/ha,100
same,AMBEL phytotoxicity rating,[6]; Rate 125 g al/ha,0
same,AMBEL phytotoxicity rating,[6]; Rate 500 g al/ha,40
same,SORHA phytotoxicity rating,[7]; Rate 125 g al/ha,0
same,SORHA phytotoxicity rating,[7]; Rate 500 g al/ha,40
same,AMARE phytotoxicity rating,[8]; Rate 125 g al/ha,100
same,AMARE phytotoxicity rating,[8]; Rate 500 g al/ha,100
same,SETVI phytotoxicity rating,[9]; Rate 125 g al/ha,80
same,SETVI phytotoxicity rating,[9]; Rate 500 g al/ha,100
same,ABUTH phytotoxicity rating,[10]; Rate 125 g al/ha,100
same,ABUTH phytotoxicity rating,[10]; Rate 500 g al/ha,100
same,DIGSA phytotoxicity rating,[11]; Rate 125 g al/ha,10
same,DIGSA phytotoxicity rating,[11]; Rate 500 g al/ha,90
same,crop damage rating CORN,[12]; rate 63 g ai/ha,5
same,crop damage rating CORN,[12]; rate 500 g ai/ha,15
same,crop damage rating RICE,[13]; rate 63 g ai/ha,0
same,crop damage rating RICE,[13]; rate 500 g ai/ha,10
same,CORN crop damage rating,[14]; Rate 500 g al/ha,0
same,RICE crop damage rating,[15]; Rate 500 g al/ha,10
same,phytotoxicity rating IPOHE,[16]; rate 63 g ai/ha,90
same,phytotoxicity rating IPOHE,[16]; rate 500 g ai/ha,100
same,phytotoxicity rating CASOB,[17]; rate 63 g ai/ha,55
same,phytotoxicity rating CASOB,[17]; rate 500 g ai/ha,95
same,phytotoxicity rating ECHCG,[18]; rate 63 g ai/ha,20
same,phytotoxicity rating ECHCG,[18]; rate 500 g ai/ha,40
same,phytotoxicity rating CHEAL,[19]; rate 63 g ai/ha,90
same,phytotoxicity rating CHEAL,[19]; rate 500 g ai/ha,100
same,phytotoxicity rating SORHA,[20]; rate 63 g ai/ha,10
same,phytotoxicity rating SORHA,[20]; rate 500 g ai/ha,30
same,phytotoxicity rating AMARE,[21]; rate 63 g ai/ha,95
same,phytotoxicity rating AMARE,[21]; rate 500 g ai/ha,100
same,phytotoxicity rating SETVI,[22]; rate 63 g ai/ha,20
same,phytotoxicity rating SETVI,[22]; rate 500 g ai/ha,80
same,phytotoxicity rating ABUTH,[23]; rate 63 g ai/ha,100
same,phytotoxicity rating ABUTH,[23]; rate 500 g ai/ha,100
same,phytotoxicity rating DIGSA,[24]; rate 63 g ai/ha,0
same,phytotoxicity rating DIGSA,[24]; rate 500 g ai/ha,50
same,SOY crop damage rating,[25]; Rate 125 g al/ha,0
same,SOY crop damage rating,[25]; Rate 500 g al/ha,30
same,phytotoxicity rating AMBEL,[26]; rate 63 g ai/ha,60
same,phytotoxicity rating AMBEL,[26]; rate 500 g ai/ha,100
COc1nc(OC)nc(Oc2cc(-n3c(=O)n4n(c3=S)CCCC4)c(F)cc2Cl)n1 [Compound 8-34],crop damage rating SOY,[1]; rate 63 g ai/ha,50
same,crop damage rating SOY,[1]; rate 500 g ai/ha,90
same,IPOHE phytotoxicity rating,[2]; Rate 125 g al/ha,0
same,IPOHE phytotoxicity rating,[2]; Rate 500 g al/ha,80
same,CASOB phytotoxicity rating,[3]; Rate 125 g al/ha,0
same,CASOB phytotoxicity rating,[3]; Rate 500 g al/ha,40
same,ECHCG phytotoxicity rating,[4]; Rate 125 g al/ha,0
same,ECHCG phytotoxicity rating,[4]; Rate 500 g al/ha,40
same,CHEAL phytotoxicity rating,[5]; Rate 125 g al/ha,100
same,CHEAL phytotoxicity rating,[5]; Rate 500 g al/ha,100
same,AMBEL phytotoxicity rating,[6]; Rate 125 g al/ha,40
same,AMBEL phytotoxicity rating,[6]; Rate 500 g al/ha,100
same,SORHA phytotoxicity rating,[7]; Rate 125 g al/ha,20
same,SORHA phytotoxicity rating,[7]; Rate 500 g al/ha,80
same,AMARE phytotoxicity rating,[8]; Rate 125 g al/ha,100
same,AMARE phytotoxicity rating,[8]; Rate 500 g al/ha,100
same,SETVI phytotoxicity rating,[9]; Rate 125 g al/ha,80
same,SETVI phytotoxicity rating,[9]; Rate 500 g al/ha,99
same,ABUTH phytotoxicity rating,[10]; Rate 125 g al/ha,100
same,ABUTH phytotoxicity rating,[10]; Rate 500 g al/ha,100
same,DIGSA phytotoxicity rating,[11]; Rate 125 g al/ha,10
same,DIGSA phytotoxicity rating,[11]; Rate 500 g al/ha,80
same,crop damage rating CORN,[12]; rate 63 g ai/ha,5
same,crop damage rating CORN,[12]; rate 500 g ai/ha,15
same,crop damage rating RICE,[13]; rate 63 g ai/ha,0
same,crop damage rating RICE,[13]; rate 500 g ai/ha,40
same,CORN crop damage rating,[14]; Rate 125 g al/ha,0
same,CORN crop damage rating,[14]; Rate 500 g al/ha,5
same,RICE crop damage rating,[15]; Rate 125 g al/ha,20
same,RICE crop damage rating,[15]; Rate 500 g al/ha,50
same,phytotoxicity rating IPOHE,[16]; rate 63 g ai/ha,100
same,phytotoxicity rating IPOHE,[16]; rate 500 g ai/ha,100
same,phytotoxicity rating CASOB,[17]; rate 63 g ai/ha,30
same,phytotoxicity rating CASOB,[17]; rate 500 g ai/ha,100
same,phytotoxicity rating ECHCG,[18]; rate 63 g ai/ha,10
same,phytotoxicity rating ECHCG,[18]; rate 500 g ai/ha,0
same,phytotoxicity rating CHEAL,[19]; rate 63 g ai/ha,95
same,phytotoxicity rating CHEAL,[19]; rate 500 g ai/ha,100
same,phytotoxicity rating SORHA,[20]; rate 63 g ai/ha,0
same,phytotoxicity rating SORHA,[20]; rate 500 g ai/ha,50
same,phytotoxicity rating AMARE,[21]; rate 63 g ai/ha,50
same,phytotoxicity rating AMARE,[21]; rate 500 g ai/ha,100
same,phytotoxicity rating SETVI,[22]; rate 63 g ai/ha,20
same,phytotoxicity rating SETVI,[22]; rate 500 g ai/ha,65
same,phytotoxicity rating ABUTH,[23]; rate 63 g ai/ha,95
same,phytotoxicity rating ABUTH,[23]; rate 500 g ai/ha,100
same,phytotoxicity rating DIGSA,[24]; rate 63 g ai/ha,0
same,phytotoxicity rating DIGSA,[24]; rate 500 g ai/ha,40
same,SOY crop damage rating,[25]; Rate 125 g al/ha,10
same,SOY crop damage rating,[25]; Rate 500 g al/ha,0
same,phytotoxicity rating AMBEL,[26]; rate 63 g ai/ha,50
same,phytotoxicity rating AMBEL,[26]; rate 500 g ai/ha,95
